The values that follow come from US20190247376A1, “NICOTINIC ACETYLCHOLINE RECEPTOR AGONIST ATTENUATES ILC2-DEPENDENT AIRWAY HYPERREACTIVITY” (University of Southern California, priority 2016, published 2019).

For assay [1], the system named is Rag2−/− GC−/− mice. As to the kind of experiment: IL-33-induced AHR in Rag2−/− GC−/− mice after adoptive transfer of WT or α7nAChR-deficient ILC2s. Type of assay: in vivo, mouse. The note with it: IL-33, agonist 125 μg days 1-3. The procedure: FIGS. 4A-4E: α7nAChR expression is critical for GTS-21 action on ILC2s in vivo. BALB/cByJ and α7nAChR^−/− mice were intranasally challenged with rm-IL-33 or PBS, and also given α7nAChR agonist (125 μg) or PBS on days 1-3. Measurement of lung function and analysis of BAL followed on day 4. (FIG. 4A) Lung resistance. (FIG. 4B) Total number of eosinophils in BALF. (FIG. 4C) Rag^−/− GC^−/− mice were received ILC2s from either WT or α7nAChR^−/− mice. After the adoptive transfer, mice were intranasally challenged with rm-IL-33 or PBS; they also received α7nAChR agonist (125 μg) or PBS on days 1-3. Measurement of lung function and analysis of BAL followed on day 4, according to scheme 4C. (FIG. 4D) Lung resistance. (FIG. 4E) Total number of eosinophils in BALF. Data are representative of at least three independent experiments and are presented as means±SEM (n=4; Student's test ***, p<0.001, WT IL-33+α7nAChR agonist vs. α7nAChR^−/− IL-33+α7nAChR agonist).
Given that a variety of cells participate in allergic inflammation, Applicants wanted to investigate the effect of the agonist specifically on ILC2s. Rag2^−/− GC^−/− mice lack not only B and T cells, but NK cells and ILC2s as well. Using methods previously described by our laboratory^36, Applicants adoptively transferred WT or α7nAChR-deficient ILC2s into these Rag2^−/− GC^−/− mice, and then treated them with IL-33, with or without α7nAChR agonist. As expected, Applicants observed a decrease of AHR and of eosinophil recruitment in mice injected with WT ILC2s in response to α7nAChR treatment (FIGS. 4C-4E).
Mice were intranasally (i.n.) administered carrier-free recombinant mouse IL-33 (BioLegend, San Diego Calif., 0.5 µg per mouse in 50 µL) with or without […] of α7nAChR agonist (kindly provided by Lin Chen) on three consecutive days. Mice were intranasally (i.n.) administered carrier-free recombinant mouse IL-25 (BioLegend, San Diego Calif., 5 µg per mouse in 50 µL) with or without […] of α7nAChR agonist on three consecutive days. For Alternaria alternata experiments, mice were i.n. administered Alternaria alternata (Greer Labs, Lenoir, N.C., 100 μg per mouse in 50 μL) with or without 125 µg α7nAChR agonist for four consecutive days. One day after the last challenge, mice were anesthetized using i.p. injection of ketamine (10 mg mL^−1) and xylazine (1 mg mL^−1). Measurements of airway resistance and dynamic compliance were conducted with the Fine Pointe RC System (Buxco Research Systems, Wilmington, N.C.), in which mice were mechanically ventilated using a modified version as previously described^36,67. […] Maximum lung resistance (RL) and minimum compliance (Cdyn) values were recorded during a three-minute period after each methacholine challenge.

Assay [2] concerns the target α7 subtype of nAChR (Homo sapiens, UniProt P36544). The note with it: cited from earlier work.
In assay [3] the test system is Rag2 GC double knockout mice with adoptively transferred human ILC2s. In words: Human ILC2-mediated AHR in humanized ILC2 mice. The format is in vivo, mouse. The note with it: i.n. IL-33, agonist three consecutive days. Here is the method: FIGS. 7A-7E: α7nAChR agonist prevents human ILC2s mediated AHR and allergic. (FIG. 7A) Human ILC2s were purified from PBMCs via FACS and cultured (10^4 cells per mL) in the presence of recombinant human IL-33 (20 ng mL^−1), IL-2 (10 ng mL^−1), and IL-7 (20 ng mL^−1), with or without α7nAChR agonist for 24h. In the right panel, data are presented as means of four individual donors. […]
Finally, to confirm the efficacy of α7nAChR agonist treatment in human ILC2-mediated AHR, sorted human ILC2s (hILC2s) were cultured in the presence of rh-IL-2 (20 ng mL^−1) and rh-IL-7 (20 ng mL^−1) for 48 hours. […] These humanized mice were given i.n. rh-IL33 (1 μg per mice) with or without α7nAChR agonists (125 µg mL^−1) for three consecutive days, and then AHR was evaluated (FIG. 7B). […]
For human peripheral ILC2s, peripheral blood mononuclear cells (PBMCs) were first isolated from human fresh blood by diluting the blood 1:1 in PBS, adding to SepMate™-50 separation tubes (STEMCELL Technologies Inc, Vancouver, Canada) prefilled with 15-mL Lymphoprep™ each (Axis-Shield, Oslo, Norway), and centrifuging at 1200 g for 15 minutes. […] On day 4, lung function was measured and BAL was performed and analyzed.

Where [4] appears, read: Rag2−/− GC−/− mice injected with WT ILC2s.
The mark [5] stands for this setting: Rag2−/− GC−/− mice injected with α7nAChR-deficient ILC2s.

Each structure is given as a SMILES string.

α7 subtype of nAChR, sequence (P36544 23-502): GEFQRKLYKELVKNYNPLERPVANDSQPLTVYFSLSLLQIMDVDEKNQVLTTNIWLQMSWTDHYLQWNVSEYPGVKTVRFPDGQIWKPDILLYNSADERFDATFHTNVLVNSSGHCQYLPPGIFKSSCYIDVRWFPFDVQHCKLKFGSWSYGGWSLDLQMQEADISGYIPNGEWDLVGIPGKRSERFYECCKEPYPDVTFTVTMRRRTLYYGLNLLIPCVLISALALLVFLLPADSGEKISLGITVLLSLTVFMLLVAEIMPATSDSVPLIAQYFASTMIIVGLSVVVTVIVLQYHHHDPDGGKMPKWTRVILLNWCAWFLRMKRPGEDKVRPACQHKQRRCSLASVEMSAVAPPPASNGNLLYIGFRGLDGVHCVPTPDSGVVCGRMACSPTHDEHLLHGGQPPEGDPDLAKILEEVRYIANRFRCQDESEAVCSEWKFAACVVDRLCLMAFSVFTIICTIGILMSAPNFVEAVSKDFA

For `COc1ccc(/C=C2\CCCN=C2c2cccnc2)c(OC)c1` [GTS-21, 3-[(3E)-3-[(2,4-dimethoxyphenyl)methylidene]-5,6-dihydro-4H-pyridin-2-yl]pyridine], in assay [1] (setting [4]), the AHR result was “decrease” and the eosinophil recruitment result is recorded as “decrease”. Besides, in assay [1] (setting [5]), the AHR entry is on record as “affected neither AHR nor eosinophilia” and the eosinophilia result is recorded as “affected neither AHR nor eosinophilia”. In assay [2], the “binding to the α7 subtype” value was “binds”. Moreover, in assay [3], the “ILC2-mediated AHR (lung resistance)” value is reported as “dampened” and the “allergic inflammation (eosinophils in BALF, lung ILC2s)” value is “dampened”.
